From PMC6591251, “Discovery of potent necroptosis inhibitors targeting RIPK1 kinase activity for the treatment of inflammatory disorder and cancer metastasis” (Cell Death & Disease, 2019)
“Also recorded” adds a separate entry of the source.

Key:
[1] = 14-day preliminary toxicity, daily oral gavage; type: in vivo, C57BL/6 mice
Description: Data represent mean value ± standard deviation. b Plasma pharmacokinetic parameters of PO and IV. c, d C57BL/6 mice (n = 5) were treated with the indicated daily oral gavage dosing of PK68 for successive 14 days. Body weight (c) and hematoxylin-eosin (H&E) staining (d) of mice were analyzed. Control mice received an equal amount of vehicle. Magnification: ×40. Data represent mean value ± standard deviation TEXT PRINTED IN THE PICTURE: (b) no label printed: Tmax (hr): 0.5 (PO (Gavage)); Cmax (ng/mL): 2423 (PO (Gavage)); AUC0-24 (ng/mL*hr): 4821 (PO (Gavage)); AUC0-24 (ng/mL*hr): 1588 (IV (Bolus)); AUCINF (ng/mL*hr): 4897 (PO (Gavage)); AUCINF (ng/mL*hr): 1590 (IV (Bolus)); t1/2 (hr): 1.3 (PO (Gavage)); t1/2 (hr): 1.0 (IV (Bolus)); MRT (hr): 1.8 (PO (Gavage)); MRT (hr): 0.8 (IV (Bolus)); CL (mL/hr/kg): 1258 (IV (Bolus)); CL (mL/min/kg): 21 (IV (Bolus)); Vss (mL/kg): 1009 (IV (Bolus)); Vss (L/kg): 1.0 (IV (Bolus)); F(%): 61 (PO (Gavage)) DOUBTS OF THE COPYIST ABOUT THIS PICTURE: Panel b prints no substance label with the PK table. The name PK68 is printed only in panels c and d, so the label is left empty.
Judging by the PK time curve, the observed plasma levels of PK68 were above its EC50 over a period of 8 h. […] These doses were meant to determine the preliminary toxicity effects of PK68 (Fig. 6c). […] We further performed histology of various tissues from mice that had received 14-day treatment of PK68.

[2] = tested on: RFP-LL/2 cells; test: Early metastasis/extravasation of tumor cells, 6 h after injection; type: in vivo, C57BL/6 mice; details: 5 mg/kg ip
Description: (§1) Studies have shown that RIPK1 kinase activity is involved in the promotion of tumor metastasis through death receptor 6-dependent necroptosis of endothelial cells[22] or VEGF-dependent activation of vascular permeability. We thus evaluated the therapeutic effect of PK68 on lung metastasis of mouse melanoma B16-F10 cells in vivo. […] After 2 weeks, the metastasis of B16-F10 cells was measured by histological analysis and assessed as the number of metastasis nodules in the lung. […] Two weeks after intravenous injection of RFP-LL/2 cells, RFP^+ LL/2 cells were isolated from the tumor tissues by flow cytometer sorting and no signal of phosphorylated RIPK1 was detected in these tumors cells (Supplementary Fig. 22). […] Further, we evaluated the effect of PK68 on the tumor cell transmigration across the cultured endothelium. […]
Melanoma B16-F10 cells (0.5 × 10^6 cells) or RFP-labeled lung carcinoma LL/2 cells (0.3 × 10^6 cells) were injected into C57BL/6 mice in a volume of 200 μl PBS via the tail intravenous injection. […] The lung metastasis of B16-F10 cells in mice was determined by accounting the number of metastasis nodules with a dissecting microscope (Leica) and histologic analysis. The lung metastasis of LL/2 cells in mice was analyzed by measuring RFP fluorescence intensities with the PerkinElmer IVIS Lumina II. […]

[3] = tested on: RFP-LL/2 cells through CD31+ endothelial cell monolayer; test: Transendothelial migration assay; type: cell-based, mouse; details: 2 h pretreatment, 20 h
Description: as §1, with “22). Six hours after intravenous injection of RFP-LL/2 cells into C57BL/6 mice, the RFP-LL/2 cells have extravasated through blood vessels into the lung (Supplementary Fig. 23).” for “22).”
Primary CD31^+ endothelial cells isolated from lungs by using CD31 beads (Miltenyi Biotec) were used for the transendothelial migration assay as previously described. […] Then fluorescence picture of transmigrated RFP-LL/2 cells were taken at ×40 magnification under the microscope (Nikon), and the intensity of fluorescence was analyzed by Image J software. […]

[4] = tested on: B16-F10 or RFP-LL/2 cells; test: Proliferation rate and invasion ability without endothelial monolayer; type: cell-based, mouse; details: B16-F10 or RFP-LL/2, in vitro
Description: as §1, with “22). Six hours after intravenous injection of RFP-LL/2 cells into C57BL/6 mice, the RFP-LL/2 cells have extravasated through blood vessels into the lung (Supplementary Fig. 23).” for “22).”, “endothelium. We isolated CD31^+ endothelial cells from the lungs and performed the transendothelial migration assay as previously reported.” for “endothelium.”
(A-B) B16-F10 and RFP-LL/2 cells were pretreated with indicated compounds for 1h and then cell viability was measured by cell Titer-Glo. (C) B16-F10 and RFP-LL/2 cells were pre-treated with indicated compounds and invasion ability was measured by the transwell assay.

[5] = 5 and 25 mg/kg, daily oral gavage, 14 days

CC(=O)Nc1nc2ccc(-c3cnc(C)c(NC(=O)OC4CCCCC4)c3)cc2s1 [PK68, cyclohexyl (5-(2-acetamidobenzo[d]thiazol-6-yl)-2-methylpyridin-3-yl)carbamate]
body weight and behavior [1, 5]: normal body weight and behavior | tolerability [1, 5]: well tolerated | toxicity in mice ([1]; 14-day course, 25 mg/kg): no obvious toxicity; also recorded: no detectable toxicity | histology of lung, liver, and heart ([1]; 14-day treatment): normal morphology | number of RFP-LL/2 cells in the lung 6 h after injection [2]: decreased number | transmigration of RFP-LL/2 cells through the endothelial cell monolayer [3]: attenuated | proliferation rate and invasion ability [4]: no obvious influence
